# According to patent US20240058417A1, “AMELIORATION AND TREATMENT OF INFARCTION DAMAGE” (priority 2021, published 2024):
# B1: VELHFSN (peptide)
# peptide: VELHFSN
# notes: N-terminal truncation of BNIP3 1-20 on the peptide microarray
# B2: WVELHFSN (BNIP3 amino acid residues 13-20) (peptide)
# peptide: WVELHFSN
# notes: Immobilised on peptide microarrays (JPT); also called truncated peptide
# Columns and labels:
# [1] = system: DOX-induced cardiotoxicity; experiment: DOX treatment in vivo (cardiotoxicity, 42 days)
# human cardiomyocytes = experiment: DOX-induced cell death and mitochondrial damage in human cardiomyocytes (HCM); details: 10 μM DOX
# myocardial I/R injury = experiment: in vivo murine myocardial I/R: infarct size, troponin, apoptosis, cardiac function; parameters: species or system mouse; details: wild-type mice
# BNIP3/BAX = experiment: in vivo murine myocardial I/R: necrotic and apoptotic signaling in the area at risk; parameters: species or system mouse; details: AAR
# recombinant BNIP3 = recombinant BNIP3 (Mus musculus, UniProt O55003); experiment: BNIP3/peptide microarray (truncation and substitution analysis); assay type: binding; details: FIG. 3H
# [2] = molecular target: T1, Recombinant Mouse BCL2/adenovirus E1B 19 kDa protein interacting protein 3 (Bnip3) (mouse, UniProt O55003 1-187, labelled with DyLight 650 (Dy650) where used as the soluble probe); experiment: N-terminal sequence truncation analysis, peptide microarray with rBNIP3
# T1 construct: Bought recombinant protein; also called rBNIP3; recombinant BNIP3
# [3] = molecular target: T1, Recombinant Mouse BCL2/adenovirus E1B …; experiment: BNIP3/peptide microarray, labelled rBNIP3 on immobilised truncation peptides
# T1 sequence (O55003 whole entry, the tested form may be a part): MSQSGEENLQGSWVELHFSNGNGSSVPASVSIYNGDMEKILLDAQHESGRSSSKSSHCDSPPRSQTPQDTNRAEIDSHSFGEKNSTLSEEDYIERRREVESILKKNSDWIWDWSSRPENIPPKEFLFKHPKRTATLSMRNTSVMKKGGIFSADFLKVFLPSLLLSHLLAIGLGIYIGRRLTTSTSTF
# Chain of recombinant BNIP3 (O55003 whole entry, the tested form may be a part): as above
molecule,measurement,setting,value
"COc1cccc2c1C(=O)c1c(O)c3c(c(O)c1C2=O)C[C@@](O)(C(=O)CO)C[C@@H]3O[C@H]1C[C@H](N)[C@H](O)[C@H](C)O1 [DOX, Doxorubicin]",heart rate,[1]; DOX alone or in combination with PepB,unaffected
same,CQ mediated LC3II/I increase (autophagic flux),[1]; additional chloroquine treatment,abolished
same,basal respiration,"[1]; cardiac mitochondria, Seahorse",affected
same,maximal respiration,"[1]; cardiac mitochondria, Seahorse",affected
same,respiratory reserve capacity (OCR),"[1]; cardiac mitochondria, Seahorse",inhibited
same,BNIP3 accumulation,"[1]; mouse, in vivo",triggered
same,cardiomyocyte death (cardiac troponin I levels),"[1]; mouse, in vivo",dramatic positive effect
same,p62 accumulation,"[1]; mouse, in vivo",triggered
same,mPTP opening,human cardiomyocytes,activated
same,mitochondrial ROS generation,human cardiomyocytes; four and 22 hours,triggered
same,mitochondrial membrane potential,human cardiomyocytes; four and 22 hours,disrupted
same,mitochondrial calcium ion overload,human cardiomyocytes; four hours,induced
"GRKKRRQRRRPQLDAQHESGRSSSKSSHCDSP [TAT-BNIP3-20C, control peptide, HIV-1 PTD attached to BNIP3 amino acids 42-61]",infarct size compared with vehicle treatment,"myocardial I/R injury; 5 minutes before reperfusion, 24 h reperfusion",no difference was observed
"GRKKRRQRRRPQMSQSGEENLQGSWVELHFSN [TAT-BNIP3-20A, HIV-1 PTD attached to 20 amino acids derived from BNIP3 1-20]",reduction in infarct size relative to vehicle,"myocardial I/R injury; peptide 5 minutes before reperfusion, 30 min ischemia/24 h reperfusion",41%
same,caspase-3 activity,BNIP3/BAX,markedly reduced
same,BNIP3 translocation to the mitochondria,"BNIP3/BAX; wild-type mice, 10 minutes reperfusion",prevented
VELHFSN,luminescence in N-terminal truncation analysis,recombinant BNIP3,substantially higher luminescence
B1,binding result,[2],binds
B2,fold signal increase compared to the 20 residues of BNIP3-20A peptide,[3],14 fold
